Laboratory results from patent publication US11053235B2, “Substituted 1,4-dihydropyrimidines for the treatment of HBV infection or HBV-induced diseases” (Janssen Sciences Ireland Unlimited Company, priority 2018, dated 2021).

Assays:
HBV = test: Anti-viral assay in HepG2.2.15 cells: HBV inhibitory activity (HBV DNA in culture medium by q-PCR); assay type: cell-based; details: Hepatitis B virus, HepG2.2.15, 144 h, HepG2.2.15 cells, 6 days treatment, HBV DNA in culture medium by q-PCR, highest concentration 10 uM; read-out: EC50
Method in brief: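 HBV DNA released into the medium was measured by q-PCR after 6-day compound exposure of HepG2.2.15 cells (40,000/well, 2% FBS, one mid-course medium change). Eight 3-fold dilutions, highest 10 uM; EC50 derived by curve fitting.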

[1] = Cytotoxicity determination in HepG2.2.15 cells (CCK-8); assay type: cell-based; details: human, 6 days treatment, CCK-8, highest concentration 100 uM
Method in brief: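 CC50 derived from CCK-8 absorbance (450 nm, 630 nm reference) after 2.5 h incubation at 37 °C. Before that, HepG2.2.15 cells (5,000/well, 2% FBS) received an 8-point, 3-fold compound series topping at 100 uM for 6 days, with one mid-treatment medium change.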

`CCOC(=O)C1=C(C2CCN(c3ncc(CC(=O)O)cn3)CC2)NC(c2nccs2)=NC1c1ccc(F)cc1Cl` (single isomer, unassigned) [II-21-B, 2-(2-(4-(6-(2-Chloro-4-fluorophenyl)-5-(ethoxycarbonyl)-2-(thiazol-2-yl)-3,6-dihydropyrimidin-4-yl)piperidin-1-yl)pyrimidin-5-yl)acetic Acid] gave an EC50 (HBV) of 6.2 nM and a CC50 at 6 days [1] of 7110 nM.
`CCOC(=O)C1=C(C2CCN(c3ncc(C)c(C(=O)O)n3)CC2)NC(c2nccs2)=NC1c1cccc(F)c1Cl` (single isomer, unassigned) [II-22-B, 2-(4-(6-(2-Chloro-3-fluorophenyl)-5-(ethoxycarbonyl)-2-(thiazol-2-yl)-3,6-dihydropyrimidin-4-yl)piperidin-1-yl)-5-methylpyrimidine-4-carboxylic Acid] gave an EC50 (HBV) of 15 nM and a CC50 at 6 days [1] of 11200 nM.
In the case of `CCOC(=O)C1=C(C2CCN(c3ncc(CC(=O)O)cn3)CC2)NC(c2nccs2)=NC1c1cccc(F)c1Cl` (single isomer, unassigned) [II-23-B, 2-(2-(4-(6-(2-Chloro-3-fluorophenyl)-5-(ethoxycarbonyl)-2-(thiazol-2-yl)-3,6-dihydropyrimidin-4-yl)piperidin-1-yl)pyrimidin-5-yl)acetic Acid], the EC50 (HBV) is reported as less than 4.6 nM and the CC50 at 6 days [1] is reported as 3880 nM.
In the case of `COC(=O)C1=C(C2CCN(c3ncc([C@]4(O)C[C@@H](C(=O)O)C4)cn3)CC2)NC(c2nccs2)=NC1c1ccc(F)c(F)c1Cl` (single isomer, unassigned) [II-24-B, (cis)-3-(2-(4-(6-(2-chloro-3,4-difluorophenyl)-5-(methoxycarbonyl)-2-(thiazol-2-yl)-3,6-dihydropyrimidin-4-yl)piperidin-1-yl)pyrimidin-5-yl)-3-hydroxycyclobutanecarboxylic Acid], the EC50 (HBV) is reported as less than 4.6 nM and the CC50 at 6 days [1] is reported as 11000 nM.
`COC(=O)C1=C(C2CCN(c3ncc(C(=O)O)o3)CC2)NC(c2nccs2)=NC1c1ccc(F)c(F)c1Cl` (single isomer, unassigned) [II-25-B, 2-(4-(6-(2-Chloro-3,4-difluorophenyl)-5-(methoxycarbonyl)-2-(thiazol-2-yl)-3,6-dihydropyrimidin-4-yl)piperidin-1-yl)oxazole-5-carboxylic Acid] showed an EC50 (HBV) of 54 nM and a CC50 at 6 days [1] of 18100 nM.
With `COC(=O)C1=C(C2CCN(c3ncc(Cl)c(C(=O)O)n3)CC2)NC(c2nccs2)=NC1c1ccc(F)c(F)c1Cl` (single isomer, unassigned) [II-26-B, 5-Chloro-2-(4-(6-(2-chloro-3,4-difluorophenyl)-5-(methoxycarbonyl)-2-(thiazol-2-yl)-3,6-dihydropyrimidin-4-yl)piperidin-1-yl)pyrimidine-4-carboxylic Acid] the EC50 (HBV) was 45 nM and the CC50 at 6 days [1] was 11100 nM.
`COC(=O)C1=C(C2CCN(c3ncc(C)c(C(=O)O)n3)CC2)NC(c2nccs2)=NC1c1ccc(F)c(F)c1Cl` (single isomer, unassigned) [II-27-B, 2-(4-(6-(2-Chloro-3,4-difluorophenyl)-5-(methoxycarbonyl)-2-(thiazol-2-yl)-3,6-dihydropyrimidin-4-yl)piperidin-1-yl)-5-methylpyrimidine-4-carboxylic Acid] gave an EC50 (HBV) of 5.5 nM and a CC50 at 6 days [1] of 20200 nM.
With `COC(=O)C1=C(C2CCN(c3ncc(CC(=O)O)c(C)n3)CC2)NC(c2nccs2)=NC1c1ccc(F)c(F)c1Cl` (single isomer, unassigned) [II-28-B, 2-(2-(4-(6-(2-Chloro-3,4-difluorophenyl)-5-(methoxycarbonyl)-2-(thiazol-2-yl)-3,6-dihydropyrimidin-4-yl)piperidin-1-yl)-4-methylpyrimidin-5-yl)acetic Acid] the EC50 (HBV) was less than 4.6 nM and the CC50 at 6 days [1] was 5330 nM.
`COC(=O)C1=C(C2CCN(c3ncc(CC(=O)O)cn3)CC2)NC(c2nccs2)=NC1c1ccc(F)c(F)c1Cl` (single isomer, unassigned) [II-29-B, 2-(2-(4-(6-(2-Chloro-3,4-difluorophenyl)-5-(methoxycarbonyl)-2-(thiazol-2-yl)-3,6-dihydropyrimidin-4-yl)piperidin-1-yl)pyrimidin-5-yl)acetic Acid] gave an EC50 (HBV) of less than 4.6 nM and a CC50 at 6 days [1] of 9460 nM.
For `COC(=O)C1=C(C2CCN(c3ncc(C(=O)O)s3)CC2)NC(c2nccs2)=NC1c1ccc(F)c(F)c1Cl` (single isomer, unassigned) [II-30-B, 2-(4-(6-(2-Chloro-3,4-difluorophenyl)-5-(methoxycarbonyl)-2-(thiazol-2-yl)-3,6-dihydropyrimidin-4-yl)piperidin-1-yl)thiazole-5-carboxylic Acid], the EC50 (HBV) was 7.2 nM and the CC50 at 6 days [1] was 16000 nM.
`COC(=O)C1=C(C2CCN(c3nc(C(F)(F)F)c(C(=O)O)s3)CC2)NC(c2nccs2)=NC1c1ccc(F)c(F)c1Cl` (single isomer, unassigned) [II-31-B, 2-(4-(6-(2-Chloro-3,4-difluorophenyl)-5-(methoxycarbonyl)-2-(thiazol-2-yl)-3,6-dihydropyrimidin-4-yl)piperidin-1-yl)-4-(trifluoromethyl)thiazole-5-carboxylic Acid] showed an EC50 (HBV) of 25 nM and a CC50 at 6 days [1] of 2610 nM.
In the case of `COC(=O)C1=C(C2CCN(c3nc(C(=O)O)cs3)CC2)NC(c2nccs2)=NC1c1ccc(F)c(F)c1Cl` (single isomer, unassigned) [II-32-B, 2-(4-(6-(2-Chloro-3,4-difluorophenyl)-5-(methoxycarbonyl)-2-(thiazol-2-yl)-3,6-dihydropyrimidin-4-yl)piperidin-1-yl)thiazole-4-carboxylic Acid], the EC50 (HBV) is reported as 46 nM and the CC50 at 6 days [1] is reported as 11100 nM.
For `COC(=O)C1=C(C2CCN(c3nc(C(=O)O)co3)CC2)NC(c2nccs2)=NC1c1ccc(F)c(F)c1Cl` (single isomer, unassigned) [II-33-B, 2-(4-(6-(2-Chloro-3,4-difluorophenyl)-5-(methoxycarbonyl)-2-(thiazol-2-yl)-3,6-dihydropyrimidin-4-yl)piperidin-1-yl)oxazole-4-carboxylic Acid], the EC50 (HBV) was 45 nM and the CC50 at 6 days [1] was 18600 nM.
With `CCOC(=O)C1=C(C2CCN(c3ccc(C(=O)O)cc3)CC2)NC(c2nccs2)=NC1c1ccc(F)c(F)c1Cl` (single isomer, unassigned) [II-35-A, 4-(4-(6-(2-Chloro-3,4-difluorophenyl)-5-(ethoxycarbonyl)-2-(thiazol-2-yl)-3,6-dihydropyrimidin-4-yl)piperidin-1-yl)benzoic Acid] the EC50 (HBV) was 20 nM and the CC50 at 6 days [1] was 3960 nM.
Molecule `CCOC(=O)C1=C(C2CCN(c3cc(O)c(C(=O)O)cn3)CC2)NC(c2nccs2)=NC1c1ccc(F)c(F)c1Cl` (single isomer, unassigned) [II-36-B, 6-(4-(6-(2-chloro-3,4-difluorophenyl)-5-(ethoxycarbonyl)-2-(thiazol-2-yl)-3,6-dihydropyrimidin-4-yl)piperidin-1-yl)-4-hydroxynicotinic Acid] has an EC50 (HBV) of 52 nM and a CC50 at 6 days [1] of 8650 nM.
Molecule `CCOC(=O)C1=C(C2CCN(c3cccc(C(=O)O)n3)CC2)NC(c2nccs2)=NC1c1ccc(F)c(F)c1Cl` (single isomer, unassigned) [II-37-B, 6-(4-(6-(2-Chloro-3,4-difluorophenyl)-5-(ethoxycarbonyl)-2-(thiazol-2-yl)-3,6-dihydropyrimidin-4-yl)piperidin-1-yl)picolinic Acid] has an EC50 (HBV) of 61 nM and a CC50 at 6 days [1] of 6410 nM.
`CCOC(=O)C1=C(C2CCN(c3cc(C(=O)O)cc(C(F)(F)F)n3)CC2)NC(c2nccs2)=NC1c1ccc(F)c(F)c1Cl` (single isomer, unassigned) [II-38-B, 2-(4-(6-(2-chloro-3,4-difluorophenyl)-5-(ethoxycarbonyl)-2-(thiazol-2-yl)-3,6-dihydropyrimidin-4-yl)piperidin-1-yl)-6-(trifluoromethyl)isonicotinic Acid] showed an EC50 (HBV) of 81 nM and a CC50 at 6 days [1] of 3880 nM.
With `CCOC(=O)C1=C(C2CCN(c3cc(C(=O)O)c(C(F)(F)F)cn3)CC2)NC(c2nccs2)=NC1c1ccc(F)c(F)c1Cl` (single isomer, unassigned) [II-39-B, 2-(4-(6-(2-Chloro-3,4-difluorophenyl)-5-(ethoxycarbonyl)-2-(thiazol-2-yl)-3,6-dihydropyrimidin-4-yl)piperidin-1-yl)-5-(trifluoromethyl)isonicotinic Acid] the EC50 (HBV) was 14 nM and the CC50 at 6 days [1] was 5380 nM.
In the case of `CCOC(=O)C1=C(C2CCN(c3nccc(C(=O)O)c3F)CC2)NC(c2nccs2)=NC1c1ccc(F)c(F)c1Cl` (single isomer, unassigned) [II-40-B, 2-(4-(6-(2-Chloro-3,4-difluorophenyl)-5-(ethoxycarbonyl)-2-(thiazol-2-yl)-3,6-dihydropyrimidin-4-yl)piperidin-1-yl)-3-fluoroisonicotinic Acid], the EC50 (HBV) is reported as 9.1 nM and the CC50 at 6 days [1] is reported as 8370 nM.
`CCOC(=O)C1=C(C2CCN(c3cc(C(=O)O)ccn3)CC2)NC(c2nccs2)=NC1c1ccc(F)c(F)c1Cl` (single isomer, unassigned) [II-41-B, 2-(4-(6-(2-Chloro-3,4-difluorophenyl)-5-(ethoxycarbonyl)-2-(thiazol-2-yl)-3,6-dihydropyrimidin-4-yl)piperidin-1-yl)isonicotinic Acid] showed an EC50 (HBV) of 5.2 nM and a CC50 at 6 days [1] of 10200 nM.
In the case of `CCOC(=O)C1=C(C2CCN(c3ccc(C(=O)O)nc3Cl)CC2)NC(c2nccs2)=NC1c1ccc(F)c(F)c1Cl` (single isomer, unassigned) [II-42-B, 6-Chloro-5-(4-(6-(2-chloro-3,4-difluorophenyl)-5-(ethoxycarbonyl)-2-(thiazol-2-yl)-3,6-dihydropyrimidin-4-yl)piperidin-1-yl)picolinic Acid], the EC50 (HBV) is reported as 56 nM and the CC50 at 6 days [1] is reported as 2570 nM.
Work on `CCOC(=O)C1=C(C2CCN(c3ccc(C(=O)O)cn3)CC2)NC(c2nccs2)=NC1c1ccc(F)c(F)c1Cl` (single isomer, unassigned) [II-43-B, 6-(4-(6-(2-Chloro-3,4-difluorophenyl)-5-(ethoxycarbonyl)-2-(thiazol-2-yl)-3,6-dihydropyrimidin-4-yl)piperidin-1-yl)nicotinic Acid] yielded an EC50 (HBV) of 16 nM and a CC50 at 6 days [1] of 11400 nM.
